Assay [1] relates to S. aureus. The assay can be described thus: Substantivity test on 100% cotton fabric, zone of inhibition (ZOI). Type of assay: cell-based. The conditions noted are these: 600 ppm, dried on 100% cotton fabric, saliva added to plates. The protocol:
2. Substantivity tests on 100% cotton fabric using S. aureus as the microorganism/zone of inhibition (ZOI).
Both samples (600 ppm LAE.HCl and control) were applied to 100% cotton fabric at the same volumes and allowed to dry at room temperature. Samples were then placed in an agar plates inoculated with S. aureus and incubated. To these plates was added saliva from the same person to determine if either sample would produce a zone inhibition. A negative control was also run at the same time. Only the product of this invention gave a positive ZOI.

The subject of assay [2] is S. aureus. The assay can be described thus: Kill tests using S. aureus (SIK test). Type of assay: cell-based. The following applies: LAE.HCl at 200 ppm versus a product containing 27% ethanol and 1890 ppm of essential oils. The protocol: One of the commercial products that was analyzed not only contains a large amount of ethanol, but contains three essential biocidal oils. Specifically it contains 900 ppm of eucalyptol, 490 ppm of Thymol, and 500 ppm of D-menthol, for a total of 1890 ppm of total active constituents. In contrast our invention is N^α-lauroyl-L-arginine-ethyl ester hydrochloride, also known as LAE.HCl, which is used as a preservative in the food and cosmetic industries. • 1. N^α—lauroyl-L-arginine-ethyl ester hydrochloride, (LAE.HCl) salt is naturally derived and metabolizes readily to L-arginine, an essential amino acid, lauric acid, and very low ppm amounts of ethanol. All degradation by products are found naturally in the body and are totally harmless. • 2. LAE.HCl has undergone extensive toxicity, and safety studies, and it is approved by the FDA and EPA for food and cosmetic industries. • 3. […] The formulation of our invention includes a natural sweetener xylitol. Xylitol is known to reduce cavities as well as inhibiting the adhesion of bacteria on enamel/dentin. The selection of xylitol has the above advantages over other natural or synthetic sweeteners. (“Science Daily”, Feb. 15, 2007) • 5. Substantivity product of this invention has been proven experimentally versus the existing commercial products resulting in longer-lasting efficacy, using a zone of inhibition tests
1. […]

The structures appear in SMILES notation.

With `CCCCCCCCCCCC(=O)N[C@@H](CCCNC(=N)N)C(=O)OCC.Cl` [LAE.HCl, N^α-lauroyl-L-arginine-ethyl ester hydrochloride], the “zone of inhibition (ZOI)” value in the assay with S. aureus [1] was “positive ZOI”. Also, the kill result with S. aureus [2] is listed as “comparable kill”.

Source of the values: patent US20150053211A1, “Cleaning and safe mouth guard solution” (priority 2013, published 2015).
